Test results taken from US20150225404A1, “PYRIDINE DERIVATIVE AND MEDICINE” (NIPPON SHINYAKU CO., LTD., priority 2012, published 2015).
Structures can show the parent of a compound that is named as a salt.

Target: T1, human mGluR5 (Homo sapiens, UniProt P41594)
T1 construct: expressed in transfected cells
Assay: Experiment for receptor function of mGluR5 (Ca2+-dependent fluorescence, FLIPR, CHO-K1 cells stably expressing human mGluR5)
Format: cell-based
Details: L-glutamic acid 10 μM, Fluo-4 fluorescence
Protocol: Stable expression cells in which the human mGluR5 gene had been introduced into a Chinese hamster ovary cell (CHO-K1) were used for evaluation. The cells were suspended in a growth medium (MEM-α (D8042, available from Sigma) containing 10% inactivated FBS (Cat. No. 171012, available from CCB) and 2 mM glutamax (Cat. No. 35050, available from GIBCO)) and seeded on a black clear-bottom 96-well plate at 100,000 cells per well. One day after seeding, the medium was replaced by a medium (Hanks' balanced salt solution (HBSS buffer solution) (20 mM HEPES, 2.5 mM probencide (165-15472, available from Wako Pure Chemical Industries, Ltd.), and 10×HBSS (14065-056, available from Gibco) diluted 10 times, pH 7.4)) containing a calcium-sensitive dye Fluo-4 AM at a final concentration of […] (F312, available from Dojindo Laboratories) and Pluronic F-127 at a final concentration of 0.0145% (P-2443, available from Sigma), followed by incubation at 37° C. for one hour, thereby loading Fluo-4 AM into the cells.
Subsequently, the cells were washed twice with an HBSS buffer solution, to which was subsequently added the same buffer solution. Twenty minutes thereafter, the plate was transferred into a fluorescence screening system (FLIPR TETRA, available from Molecular Devices, LLC) and measured for a Ca^2+-dependent fluorescence change in the cells.
First of all, a fluorescence baseline was measured, and thereafter, fluorescence measurement was performed for 2 minutes while adding a test substance, an excessive amount of 6-methyl-2-(phenylethynyl)pyridine (hereinafter referred to as “MPEP”) (final concentration: 10 μM), or the medium. Thereafter, fluorescence measurement was carried out for one minute while adding L-glutamic acid (final concentration: 10 μM).
While taking a fluorescence intensity caused by L-glutamic acid as 100% and a fluorescence intensity caused by L-glutamic acid in the presence of MPEP as 0%, respectively, function inhibitory activity against human mGluR5 was evaluated from the fluorescence intensity caused by L-glutamic acid in the presence of the test substance at each concentration, and an IC50 value was estimated according to a logistic equation (SAS System).

T1 sequence (P41594 21-1212): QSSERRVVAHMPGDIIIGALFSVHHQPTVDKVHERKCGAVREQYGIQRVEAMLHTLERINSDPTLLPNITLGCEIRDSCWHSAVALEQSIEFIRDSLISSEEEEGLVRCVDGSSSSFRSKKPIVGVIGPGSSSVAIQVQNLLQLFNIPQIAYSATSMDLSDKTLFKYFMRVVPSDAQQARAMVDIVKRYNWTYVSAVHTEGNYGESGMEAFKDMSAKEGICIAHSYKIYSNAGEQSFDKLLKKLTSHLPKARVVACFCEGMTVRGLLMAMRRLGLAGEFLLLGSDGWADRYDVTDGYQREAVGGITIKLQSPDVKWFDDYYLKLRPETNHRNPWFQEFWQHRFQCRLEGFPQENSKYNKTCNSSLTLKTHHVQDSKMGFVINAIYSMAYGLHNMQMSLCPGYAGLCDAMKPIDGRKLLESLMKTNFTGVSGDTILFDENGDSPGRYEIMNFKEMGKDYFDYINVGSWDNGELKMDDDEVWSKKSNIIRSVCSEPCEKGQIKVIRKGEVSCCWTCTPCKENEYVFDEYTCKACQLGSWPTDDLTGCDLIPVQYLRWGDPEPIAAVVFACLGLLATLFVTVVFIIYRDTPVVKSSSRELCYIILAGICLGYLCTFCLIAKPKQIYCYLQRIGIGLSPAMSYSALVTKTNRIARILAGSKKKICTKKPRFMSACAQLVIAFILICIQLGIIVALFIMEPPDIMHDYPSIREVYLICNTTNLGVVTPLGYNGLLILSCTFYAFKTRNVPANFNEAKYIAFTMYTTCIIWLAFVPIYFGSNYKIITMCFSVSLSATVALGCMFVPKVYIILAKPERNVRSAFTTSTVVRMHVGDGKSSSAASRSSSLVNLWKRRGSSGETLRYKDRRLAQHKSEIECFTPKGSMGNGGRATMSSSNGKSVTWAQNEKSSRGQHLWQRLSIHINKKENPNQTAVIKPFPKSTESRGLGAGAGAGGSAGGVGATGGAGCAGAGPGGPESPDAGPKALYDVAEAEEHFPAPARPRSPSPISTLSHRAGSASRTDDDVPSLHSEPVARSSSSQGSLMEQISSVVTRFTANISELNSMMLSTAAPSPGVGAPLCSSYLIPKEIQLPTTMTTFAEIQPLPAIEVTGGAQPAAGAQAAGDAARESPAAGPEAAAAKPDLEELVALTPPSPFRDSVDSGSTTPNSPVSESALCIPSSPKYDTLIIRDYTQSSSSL

| IC50 | SMILES |
| --- | --- |
| 0.075 µM | c1cncc(-c2cc(OCc3nccs3)nc3c2CCCC3)c1 [Example 94, 4-(Pyridin-3-yl)-2-(1,3-thiazol-2-ylmethoxy)-5,6,7,8-tetrahydroquinoline hydrochloride] |
| 0.042 µM | Cc1csc(COc2cc(-c3cccnc3)c3c(n2)CCCC3)n1 [Example 95, 2-[(4-Methyl-1,3-thiazol-2-yl)methoxy]-4-(pyridin-3-yl)-5,6,7,8-tetrahydroquinoline] |
| 0.0563 µM | Cc1nc(COc2cc(-c3cccnc3)c3c(n2)CCCC3)cs1 [Example 96, 2-[(2-Methyl-1,3-thiazol-4-yl)methoxy]-4-(pyridin-3-yl)-5,6,7,8-tetrahydroquinoline] |
| 0.0234 µM | Fc1ccc(-c2cc(OCc3ccccn3)nc3c2CCCC3)cn1 [Example 101, 4-(6-Fluoropyridin-3-yl)-2-(pyridin-2-ylmethoxy)-5,6,7,8-tetrahydroquinoline dihydrochloride] |
| 0.0512 µM | COc1cncc(-c2cc(OCc3ccccn3)nc3c2CCCC3)c1 [Example 102, 4-(5-Methoxypyridin-3-yl)-2-(pyridin-2-ylmethoxy)-5,6,7,8-tetrahydroquinoline hydrochloride] |
| 0.0517 µM | N#Cc1ccc(-c2cc(OCc3ccccn3)nc3c2CCCC3)cn1 [Example 104, 5-[2-(Pyridin-2-ylmethoxy)-5,6,7,8-tetrahydroquinolin-4-yl]pyridine-2-carbonitrile hydrochloride] |
| 0.0812 µM | Fc1cncc(-c2cc(OCc3ccccn3)nc3c2CCCC3)c1 [Example 107, 4-(5-Fluoropyridin-3-yl)-2-(pyridin-2-ylmethoxy)-5,6,7,8-tetrahydroquinoline hydrochloride] |
| 0.0688 µM | N#Cc1cncc(-c2cc(OCc3ccccn3)nc3c2CCCC3)c1 [Example 113, 5-[2-(Pyridin-2-ylmethoxy)-5,6,7,8-tetrahydroquinolin-4-yl]pyridine-3-carbonitrile hydrochloride] |
| 0.0987 µM | CC(=O)c1cncc(-c2cc(OCc3ccccn3)nc3c2CCCC3)c1 [Example 115, 1-{5-[2-(Pyridin-2-ylmethoxy)-5,6,7,8-tetrahydroquinolin-4-yl]pyridin-3-yl}ethanone dihydrochloride] |
| 0.133 µM | COC(=O)c1cncc(-c2cc(OCc3ccccn3)nc3c2CCCC3)c1 [Example 116, Methyl 5-[2-(pyridin-2-ylmethoxy)-5,6,7,8-tetrahydroquinolin-4-yl]pyridine-3-carboxylate] |
| 0.206 µM | CN(C)C(=O)c1cncc(-c2cc(OCc3ccccn3)nc3c2CCCC3)c1 [Example 120, N,N-Dimethyl-5-[2-(pyridin-2-ylmethoxy)-5,6,7,8-tetrahydroquinolin-4-yl]pyridine-3-carboxamide hydrochloride] |
| 0.0727 µM | OCc1cncc(-c2cc(OCc3ccccn3)nc3c2CCCC3)c1 [Example 122, {5-[2-(Pyridin-2-ylmethoxy)-5,6,7,8-tetrahydroquinolin-4-yl]pyridin-3-yl}methanol hydrochloride] |
| 0.0588 µM | COCc1cncc(-c2cc(OCc3ccccn3)nc3c2CCCC3)c1 [Example 123, 4-[5-(Methoxymethyl)pyridin-3-yl]-2-(pyridin-2-ylmethoxy)-5,6,7,8-tetrahydroquinoline hydrochloride] |
| 0.0248 µM | Nc1cncc(-c2cc(OCc3ccccn3)nc3c2CCCC3)c1 [Example 124, 5-[2-(Pyridin-2-ylmethoxy)-5,6,7,8-tetrahydroquinolin-4-yl]pyridin-3-amine] |
| 0.0456 µM | CNc1cncc(-c2cc(OCc3ccccn3)nc3c2CCCC3)c1 [Example 125, N-Methyl-5-[2-(pyridin-2-ylmethoxy)-5,6,7,8-tetrahydroquinolin-4-yl]pyridin-3-amine] |
| 0.0998 µM | CN(C)c1cncc(-c2cc(OCc3ccccn3)nc3c2CCCC3)c1 [Example 126, N,N-Dimethyl-5-[2-(pyridin-2-ylmethoxy)-5,6,7,8-tetrahydroquinolin-4-yl]pyridin-3-amine] |
| 0.095 µM | Fc1ccc(COc2cc(-c3cccnc3F)c3c(n2)CCCC3)nc1 [Example 138, 4-(2-Fluoropyridin-3-yl)-2-[(5-fluoropyridin-2-yl)methoxy]-5,6,7,8-tetrahydroquinoline hydrochloride] |
| 0.0194 µM | Fc1cccc(COc2cc(-c3cncnc3)c3c(n2)CCCC3)n1 [Example 144, 2-[(6-Fluoropyridin-2-yl)methoxy]-4-(pyrimidin-5-yl)-5,6,7,8-tetrahydroquinoline] |

| IC50 | SMILES |
| --- | --- |
| 0.074 µM | Fc1ccc(COc2cc(-c3cncnc3)c3c(n2)CCCC3)nc1 [Example 145, 2-[(5-Fluoropyridin-2-yl)methoxy]-4-(pyrimidin-5-yl)-5,6,7,8-tetrahydroquinoline] |
| 0.176 µM | Fc1ccnc(COc2cc(-c3cncnc3)c3c(n2)CCCC3)c1 [Example 146, 2-[(4-Fluoropyridin-2-yl)methoxy]-4-(pyrimidin-5-yl)-5,6,7,8-tetrahydroquinoline] |
| 0.0193 µM | N#Cc1cccc(COc2cc(-c3cncnc3)c3c(n2)CCCC3)n1 [Example 149, 6-({[4-(Pyrimidin-5-yl)-5,6,7,8-tetrahydroquinolin-2-yl]oxy}methyl)pyridine-2-carbonitrile] |
| 0.063 µM | N#Cc1ccc(COc2cc(-c3cncnc3)c3c(n2)CCCC3)nc1 [Example 150, 6-({[4-(Pyrimidin-5-yl)-5,6,7,8-tetrahydroquinolin-2-yl]oxy}methyl)pyridine-3-carbonitrile] |
| 0.439 µM | N#Cc1ccnc(COc2cc(-c3cncnc3)c3c(n2)CCCC3)c1 [Example 151, 2-({[4-(Pyrimidin-5-yl)-5,6,7,8-tetrahydroquinolin-2-yl]oxy}methyl)pyridine-4-carbonitrile] |
| 0.0448 µM | Cc1cccc(COc2cc(-c3cncnc3)c3c(n2)CCCC3)n1 [Example 152, 2-[(6-Methylpyridin-2-yl)methoxy]-4-(pyrimidin-5-yl)-5,6,7,8-tetrahydroquinoline] |
| 0.316 µM | Cc1cccnc1COc1cc(-c2cncnc2)c2c(n1)CCCC2 [Example 153, 2-[(3-Methylpyridin-2-yl)methoxy]-4-(pyrimidin-5-yl)-5,6,7,8-tetrahydroquinoline] |
| 0.28 µM | FC(F)(F)c1cccc(COc2cc(-c3cncnc3)c3c(n2)CCCC3)n1 [Example 154, 4-(Pyrimidin-5-yl)-2-{[6-(trifluoromethyl)pyridin-2-yl]methoxy}-5,6,7,8-tetrahydroquinoline hydrochloride] |
| 0.333 µM | Nc1cccc(COc2cc(-c3cncnc3)c3c(n2)CCCC3)n1 [Example 157, 6-({[4-(Pyrimidin-5-yl)-5,6,7,8-tetrahydroquinolin-2-yl]oxy}methyl)pyridin-2-amine] |
| 0.253 µM | CNc1cccc(COc2cc(-c3cncnc3)c3c(n2)CCCC3)n1 [Example 158, N-Methyl-6-({[4-(pyrimidin-5-yl)-5,6,7,8-tetrahydroquinolin-2-yl]oxy}methyl)pyridin-2-amine] |
| 0.152 µM | COCc1cccc(COc2cc(-c3cncnc3)c3c(n2)CCCC3)n1 [Example 160, 2-{[6-(Methoxymethyl)pyridin-2-yl]methoxy}-4-(pyrimidin-5-yl)-5,6,7,8-tetrahydroquinoline hydrochloride] |
| 0.359 µM | C=Cc1cccc(COc2cc(-c3cncnc3)c3c(n2)CCCC3)n1 [Example 161, 2-[(6-Ethenylpyridin-2-yl)methoxy]-4-(pyrimidin-5-yl)-5,6,7,8-tetrahydroquinoline] |
| 0.0204 µM | Fc1ncc(-c2cc(OCc3ccccn3)nc3c2CCCC3)cn1 [Example 167, 4-(2-Fluoropyrimidin-5-yl)-2-(pyridin-2-ylmethoxy)-5,6,7,8-tetrahydroquinoline hydrochloride] |
| 0.153 µM | Cc1ncc(-c2cc(OCc3ccccn3)nc3c2CCCC3)cn1 [Example 168, 4-(2-Methylpyrimidin-5-yl)-2-(pyridin-2-ylmethoxy)-5,6,7,8-tetrahydroquinoline] |
| 0.0139 µM | Nc1ncc(-c2cc(OCc3ccccn3)nc3c2CCCC3)cn1 [Example 169, 5-[2-(Pyridin-2-ylmethoxy)-5,6,7,8-tetrahydroquinolin-4-yl]pyrimidin-2-amine] |
| 0.0708 µM | Clc1ncncc1-c1cc(OCc2ccccn2)nc2c1CCCC2 [Example 176, 4-(4-Chloropyrimidin-5-yl)-2-(pyridin-2-ylmethoxy)-5,6,7,8-tetrahydroquinoline hydrochloride] |
| 0.026 µM | Cc1ncc(-c2cc(OCc3cccc(F)n3)nc3c2CCCC3)cn1 [Example 185, 2-[(6-Fluoropyridin-2-yl)methoxy]-4-(2-methylpyrimidin-5-yl)-5,6,7,8-tetrahydroquinoline] |
| 0.026 µM | Cc1ncc(-c2cc(OCc3ccc(F)cn3)nc3c2CCCC3)cn1 [Example 186, 2-[(5-Fluoropyridin-2-yl)methoxy]-4-(2-methylpyrimidin-5-yl)-5,6,7,8-tetrahydroquinoline] |
